From PubChem BioAssay AID1259407 (Chemical Carcinogenesis Research Information System (CCRIS), 2018)
Calls of active or inactive are those of the source. How the calls were made is not given here.

Test system: CCRIS mutagenicity, Ames/micronucleus/aberration tests
Assay: CCRIS mutagenicity studies
[1] = Test System: AMES SALMONELLA TYPHIMURIUM, Strain/Indicator: TA100, Metabolic Activation: NONE, Method: STANDARD PLATE
[2] = Test System: AMES SALMONELLA TYPHIMURIUM, Strain/Indicator: TA97, Metabolic Activation: NONE, Method: PREINCUBATION
[3] = Test System: AMES SALMONELLA TYPHIMURIUM, Strain/Indicator: TA100, Metabolic Activation: NONE, Method: PREINCUBATION
[4] = Test System: AMES SALMONELLA TYPHIMURIUM, Strain/Indicator: TA98, Metabolic Activation: NONE, Method: STANDARD PLATE
[5] = Test System: AMES SALMONELLA TYPHIMURIUM, Strain/Indicator: TA102, Metabolic Activation: NONE, Method: STANDARD PLATE
[6] = Test System: AMES SALMONELLA TYPHIMURIUM, Strain/Indicator: TA98, Metabolic Activation: HAMSTER, LIVER, S-9, AROCLOR 1254 (10%), Method: PREINCUBATION
[7] = Test System: AMES SALMONELLA TYPHIMURIUM, Strain/Indicator: TA98, Metabolic Activation: NONE, Method: PREINCUBATION
[8] = Test System: AMES SALMONELLA TYPHIMURIUM, Strain/Indicator: TA98, Metabolic Activation: RAT, LIVER, S-9, AROCLOR 1254 (10%), Method: PREINCUBATION
[9] = Test System: AMES SALMONELLA TYPHIMURIUM, Strain/Indicator: TA100, Metabolic Activation: HAMSTER, LIVER, S-9, AROCLOR 1254 (10%), Method: PREINCUBATION
[10] = Test System: AMES SALMONELLA TYPHIMURIUM, Strain/Indicator: TA100, Metabolic Activation: RAT, LIVER, S-9, AROCLOR 1254 (10%), Method: PREINCUBATION
[11] = Test System: AMES SALMONELLA TYPHIMURIUM, Strain/Indicator: TA1535, Metabolic Activation: HAMSTER, LIVER, S-9, AROCLOR 1254 (10%), Method: PREINCUBATION
[12] = Test System: AMES SALMONELLA TYPHIMURIUM, Strain/Indicator: TA1535, Metabolic Activation: NONE, Method: PREINCUBATION
[13] = Test System: AMES SALMONELLA TYPHIMURIUM, Strain/Indicator: TA1535, Metabolic Activation: RAT, LIVER, S-9, AROCLOR 1254 (10%), Method: PREINCUBATION
[14] = Test System: AMES SALMONELLA TYPHIMURIUM, Strain/Indicator: TA1537, Metabolic Activation: HAMSTER, LIVER, S-9, AROCLOR 1254 (10%), Method: PREINCUBATION
[15] = Test System: AMES SALMONELLA TYPHIMURIUM, Strain/Indicator: TA1537, Metabolic Activation: NONE, Method: PREINCUBATION
[16] = Test System: AMES SALMONELLA TYPHIMURIUM, Strain/Indicator: TA1537, Metabolic Activation: RAT, LIVER, S-9, AROCLOR 1254 (10%), Method: PREINCUBATION

Row | Compound | mutagenic call [1] | mutagenic call [3] | mutagenic call [4] | mutagenic call [5] | mutagenic call [6] | mutagenic call [7] | mutagenic call [8] | mutagenic call [9] | mutagenic call [10] | mutagenic call [11] | mutagenic call [12] | mutagenic call [13] | mutagenic call [15] | also measured
1 | C#CC(OC(=O)NC1CCCCC1)(c1ccccc1)c1ccccc1 | active; positive | – | – | – | – | – | – | – | – | – | – | – | – | –
2 | c1ccc2[nH]ccc2c1 | – | inactive; negative | – | – | – | – | – | – | – | – | – | – | – | mutagenic call [2]: inactive; negative; mutagenic call (Test System: AMES SALMONELLA TYPHIMURIUM, Strain/Indicator: TA97, Metabolic Activation: RAT, LIVER, S-9, AROCLOR 1254, Method: PREINCUBATION): inactive; negative; mutagenic call (Test System: AMES SALMONELLA TYPHIMURIUM, Strain/Indicator: TA102, Metabolic Activation: NONE, Method: PREINCUBATION): inactive; negative; mutagenic call (Test System: AMES SALMONELLA TYPHIMURIUM, Strain/Indicator: TA102, Metabolic Activation: RAT, LIVER, S-9, AROCLOR 1254, Method: PREINCUBATION): inactive; negative
3 | CCOc1ccc(C(C)(C)C)cc1NC(=O)C(=O)Nc1ccccc1CC | inactive; negative | – | inactive; negative | inactive; negative | – | – | – | – | – | – | – | – | – | mutagenic call (Test System: AMES SALMONELLA TYPHIMURIUM, Strain/Indicator: TA97, Metabolic Activation: NONE, Method: STANDARD PLATE): inactive; negative; mutagenic call (Test System: AMES SALMONELLA TYPHIMURIUM, Strain/Indicator: TA97, Metabolic Activation: S-9, Method: STANDARD PLATE): inactive; negative; mutagenic call (Test System: AMES SALMONELLA TYPHIMURIUM, Strain/Indicator: TA98, Metabolic Activation: S-9, Method: STANDARD PLATE): inactive; negative; mutagenic call (Test System: AMES SALMONELLA TYPHIMURIUM, Strain/Indicator: TA100, Metabolic Activation: S-9, Method: STANDARD PLATE): inactive; negative; mutagenic call (Test System: AMES SALMONELLA TYPHIMURIUM, Strain/Indicator: TA102, Metabolic Activation: S-9, Method: STANDARD PLATE): inactive; negative; mutagenic call (Test System: E.COLI, Strain/Indicator: WP2 (PKM101), Metabolic Activation: NONE, Method: STANDARD PLATE): inactive; negative; mutagenic call (Test System: E.COLI, Strain/Indicator: WP2 (PKM101), Metabolic Activation: S-9, Method: STANDARD PLATE): inactive; negative
4 | COc1cc(-c2ccc(N/N=C3\C=C(S(=O)(=O)O)c4ccccc4C3=O)c(OC)c2)ccc1N/N=C1/C=C(S(=O)(=O)O)c2ccccc2C1=O | – | inactive; negative | – | – | inactive; negative | inactive; negative | inactive; negative | inactive; negative | inactive; negative | inactive; negative | inactive; negative | inactive; negative | inactive; negative | mutagenic call [14]: inactive; negative; mutagenic call [16]: inactive; negative; mutagenic call (Test System: AMES SALMONELLA TYPHIMURIUM, Strain/Indicator: TA1538, Metabolic Activation: RAT, LIVER, S-9, AROCLOR 1254, Method: STANDARD PLATE): inactive; negative
5 | CC/C=C1\OC(=O)c2ccccc21 | – | inactive; negative | – | – | inactive; negative | inactive; negative | inactive; negative | inactive; negative | active; positive | inactive; negative | inactive; negative | inactive; negative | – | mutagenic call (Test System: AMES SALMONELLA TYPHIMURIUM, Strain/Indicator: TA97, Metabolic Activation: HAMSTER, LIVER, S-9, AROCLOR 1254 (10%), Method: PREINCUBATION): inactive; negative; mutagenic call [2]: inactive; negative; mutagenic call (Test System: AMES SALMONELLA TYPHIMURIUM, Strain/Indicator: TA97, Metabolic Activation: RAT, LIVER, S-9, AROCLOR 1254 (10%), Method: PREINCUBATION): inactive; negative
6 | Nc1c2ccccc2nc2ccc(I)cc12 | – | – | – | – | – | – | – | – | – | – | – | – | active; positive | –
7 | CCOCCO | inactive; negative | inactive; negative | inactive; negative | inactive; negative | inactive; negative | inactive; negative | inactive; negative | inactive; negative | inactive; negative | inactive; negative | inactive; negative | inactive; negative | inactive; negative | mutagenic call (End Point: IN VITRO CHROMOSOMAL ABERRATIONS, Test System: CHINESE HAMSTER OVARY CELLS, Metabolic Activation: RAT, LIVER, S-9, AROCLOR 1254): inactive; negative; mutagenic call (Test System: AMES SALMONELLA TYPHIMURIUM, Strain/Indicator: TA97A, Metabolic Activation: NONE, Method: STANDARD PLATE): inactive; negative; mutagenic call (Test System: AMES SALMONELLA TYPHIMURIUM, Strain/Indicator: TA97A, Metabolic Activation: RAT, LIVER, S-9, AROCLOR 1254, Method: STANDARD PLATE): inactive; negative; mutagenic call (Test System: AMES SALMONELLA TYPHIMURIUM, Strain/Indicator: TA98, Metabolic Activation: RAT, LIVER, S-9, AROCLOR 1254, Method: STANDARD PLATE): inactive; negative; mutagenic call (Test System: AMES SALMONELLA TYPHIMURIUM, Strain/Indicator: TA98, Metabolic Activation: RAT, LIVER, S-9, KC 500, Method: PREINCUBATION): inactive; negative; mutagenic call (Test System: AMES SALMONELLA TYPHIMURIUM, Strain/Indicator: TA100, Metabolic Activation: RAT, LIVER, S-9, AROCLOR 1254, Method: STANDARD PLATE): inactive; negative; mutagenic call (Test System: AMES SALMONELLA TYPHIMURIUM, Strain/Indicator: TA100, Metabolic Activation: RAT, LIVER, S-9, KC 500, Method: PREINCUBATION): inactive; negative; mutagenic call (Test System: AMES SALMONELLA TYPHIMURIUM, Strain/Indicator: TA102, Metabolic Activation: RAT, LIVER, S-9, AROCLOR 1254, Method: STANDARD PLATE): inactive; negative; mutagenic call (Test System: AMES SALMONELLA TYPHIMURIUM, Strain/Indicator: TA1535, Metabolic Activation: RAT, LIVER, S-9, KC 500, Method: PREINCUBATION): inactive; negative; mutagenic call [14]: inactive; negative; mutagenic call [16]: inactive; negative; mutagenic call (Test System: AMES SALMONELLA TYPHIMURIUM, Strain/Indicator: TA1537, Metabolic Activation: RAT, LIVER, S-9, KC 500, Method: PREINCUBATION): inactive; negative; mutagenic call (Test System: AMES SALMONELLA TYPHIMURIUM, Strain/Indicator: TA1538, Metabolic Activation: NONE, Method: PREINCUBATION): inactive; negative; mutagenic call (Test System: AMES SALMONELLA TYPHIMURIUM, Strain/Indicator: TA1538, Metabolic Activation: RAT, LIVER, S-9, KC 500, Method: PREINCUBATION): inactive; negative; mutagenic call (Test System: E. COLI, Strain/Indicator: WP2 UVRA, Metabolic Activation: NONE, Method: PREINCUBATION): inactive; negative; mutagenic call (Test System: E. COLI, Strain/Indicator: WP2 UVRA, Metabolic Activation: RAT, LIVER, S-9, KC 500, Method: PREINCUBATION): inactive; negative
8 | CCN(CCCl)c1ccc(-c2nc3ccc(-c4nc5ccc(N6CCN(C)CC6)cc5[nH]4)cc3[nH]2)cc1 | inactive; negative | – | inactive; negative | inactive; negative | – | – | – | – | – | – | – | – | – | –
9 | c1ccc2c(c1)ccc1ccc3ccsc3c12 | – | – | – | – | – | – | – | – | – | – | – | – | – | mutagenic call (Test System: Ames Salmonella typhimurium, Strain/Indicator: TA98, Metabolic Activation: None, Method: Plate incorporation): active; positive; mutagenic call (Test System: Ames Salmonella typhimurium, Strain/Indicator: TA100, Metabolic Activation: None, Method: Plate incorporation): active; positive; mutagenic call (Test System: Ames Salmonella typhimurium, Strain/Indicator: TA1040, Metabolic Activation: None, Method: Plate incorporation): inactive; negative
